{"source": "ChEMBL document CHEMBL3352632", "about": "(Bioorg Med Chem, 2014)", "key": {"[1]": {"assay": "Binding affinity to fluorescently-labeled c-MYC G-quadruplex DNA (unknown origin) by thiazole-ornage dye based fluorescence intercalator displacement assay"}, "HepG2 [2]": {"system": "HepG2", "assay": "Cell cycle arrest in human HepG2 cells assessed as accumulation at S phase at 5 uM after 12 hrs by propidium iodide staining based flow cytometry (reference value: 19.5%)", "type": "functional"}, "HepG2 [3]": {"system": "HepG2", "assay": "Induction of apoptosis in human HepG2 cells assessed as necrotic cells level at 5 uM after 24 hrs by annexin V/propidium iodide double staining based flow cytometry", "type": "functional"}, "HepG2 [4]": {"system": "HepG2", "assay": "Cell cycle arrest in human HepG2 cells assessed as accumulation at subG0 phase at 5 uM after 12 hrs by propidium iodide staining based flow cytometry (reference value: 1.8%)", "type": "functional"}, "HepG2 [5]": {"system": "HepG2", "assay": "Cell cycle arrest in human HepG2 cells assessed as accumulation at G2/M phase at 2.5 uM after 12 hrs by propidium iodide staining based flow cytometry (reference value: 25.2%)", "type": "functional"}, "[6]": {"assay": "Binding affinity to fluorescently-labeled c-KIT1 G-quadruplex DNA (unknown origin) assessed as change in melting temperature by FRET assay"}, "HepG2 [7]": {"system": "HepG2", "assay": "Cell cycle arrest in human HepG2 cells assessed as accumulation at G0/G1 phase at 2.5 uM after 12 hrs by propidium iodide staining based flow cytometry (reference value: 53.4%)", "type": "functional"}, "HepG2 [8]": {"system": "HepG2", "assay": "Cytotoxicity against human HepG2 cells after 24 hrs by MTT assay", "conditions": "HepG2, 24 h"}, "HepG2 [9]": {"system": "HepG2", "assay": "Cell cycle arrest in human HepG2 cells assessed as accumulation at G0/G1 phase at 10 uM after 12 hrs by propidium iodide staining based flow cytometry (reference value: […])", "type": "functional"}, "[10]": {"assay": "Binding affinity to fluorescently-labeled h-TELO G-quadruplex DNA (unknown origin) by thiazole-ornage dye based fluorescence intercalator displacement assay"}, "[11]": {"assay": "Binding affinity to fluorescently-labeled c-KIT1 G-quadruplex DNA (unknown origin) assessed as change in melting temperature at 2 uM by FRET assay"}, "HepG2 [12]": {"system": "HepG2", "assay": "Induction of apoptosis in human HepG2 cells assessed as late apoptotic cells level at 5 uM after 24 hrs by annexin V/propidium iodide double staining based flow cytometry", "type": "functional"}, "[13]": {"assay": "Binding affinity to fluorescently-labeled c-KIT1 G-quadruplex DNA (unknown origin) assessed as change in melting temperature at 2 uM in presence of 5 uM c-KIT2 G-quadruplex DNA by FRET assay"}, "[14]": {"assay": "Binding affinity to fluorescently-labeled c-KIT1 G-quadruplex DNA (unknown origin) assessed as change in melting temperature at 2 uM in presence of 5 uM c-MYC G-quadruplex DNA by FRET assay"}, "HepG2 [15]": {"system": "HepG2", "assay": "Induction of apoptosis in human HepG2 cells assessed as necrotic cells level at 2.5 uM after 24 hrs by annexin V/propidium iodide double staining based flow cytometry", "type": "functional"}, "HepG2 [16]": {"system": "HepG2", "assay": "Cell cycle arrest in human HepG2 cells assessed as accumulation at subG0 phase at 10 uM after 12 hrs by propidium iodide staining based flow cytometry (reference value: 1.8%)", "type": "functional"}, "HepG2 [17]": {"system": "HepG2", "assay": "Induction of apoptosis in human HepG2 cells assessed as early apoptotic cells level at 2.5 uM after 24 hrs by annexin V/propidium iodide double staining based flow cytometry", "type": "functional"}, "[18]": {"assay": "Selectivity for fluorescently-labeled c-KIT1 G-quadruplex DNA (unknown origin) over fluorescently-labeled c-KIT2 G-quadruplex DNA (unknown origin)"}, "HepG2 [19]": {"system": "HepG2", "assay": "Cell cycle arrest in human HepG2 cells assessed as accumulation at G0/G1 phase at 5 uM after 12 hrs by propidium iodide staining based flow cytometry (reference value: 53.4%)", "type": "functional"}, "[20]": {"assay": "Selectivity for fluorescently-labeled c-KIT1 G-quadruplex DNA (unknown origin) over fluorescently-labeled c-MYC G-quadruplex DNA (unknown origin)"}, "HepG2 [21]": {"system": "HepG2", "assay": "Cell cycle arrest in human HepG2 cells assessed as accumulation at G2/M phase at 5 uM after 12 hrs by propidium iodide staining based flow cytometry (reference value: 25.2%)", "type": "functional"}, "[22]": {"assay": "Binding affinity to fluorescently-labeled c-KIT1 G-quadruplex DNA (unknown origin) assessed as change in melting temperature at 2 uM in presence of 5 uM h-TELO G-quadruplex DNA by FRET assay"}, "HepG2 [23]": {"system": "HepG2", "assay": "Induction of apoptosis in human HepG2 cells assessed as late apoptotic cells level at 2.5 uM after 24 hrs by annexin V/propidium iodide double staining based flow cytometry", "type": "functional"}, "HepG2 [24]": {"system": "HepG2", "assay": "Induction of apoptosis in human HepG2 cells assessed as early apoptotic cells level at 10 uM after 24 hrs by annexin V/propidium iodide double staining based flow cytometry", "type": "functional"}, "HepG2 [25]": {"system": "HepG2", "assay": "Cell cycle arrest in human HepG2 cells assessed as accumulation at G2/M phase at 10 uM after 12 hrs by propidium iodide staining based flow cytometry (reference value: […])", "type": "functional"}, "HepG2 [26]": {"system": "HepG2", "assay": "Induction of apoptosis in human HepG2 cells assessed as early apoptotic cells level at 5 uM after 24 hrs by annexin V/propidium iodide double staining based flow cytometry", "type": "functional"}, "[27]": {"assay": "Selectivity for fluorescently-labeled c-KIT1 G-quadruplex DNA (unknown origin) over fluorescently-labeled h-TELO G-quadruplex DNA (unknown origin)"}, "[28]": {"assay": "Binding affinity to fluorescently-labeled duplex DNA (unknown origin) by thiazole-ornage dye based fluorescence intercalator displacement assay"}, "HepG2 [29]": {"system": "HepG2", "assay": "Cell cycle arrest in human HepG2 cells assessed as accumulation at subG0 phase at 2.5 uM after 12 hrs by propidium iodide staining based flow cytometry (reference value: 1.8%)", "type": "functional"}, "HepG2 [30]": {"system": "HepG2", "assay": "Cell cycle arrest in human HepG2 cells assessed as accumulation at S phase at 10 uM after 12 hrs by propidium iodide staining based flow cytometry (reference value: 19.10%)", "type": "functional"}, "[31]": {"assay": "Binding affinity to fluorescently-labeled c-KIT1 G-quadruplex DNA (unknown origin) by thiazole-ornage dye based fluorescence intercalator displacement assay"}, "HepG2 [32]": {"system": "HepG2", "assay": "Cell cycle arrest in human HepG2 cells assessed as accumulation at S phase at 2.5 uM after 12 hrs by propidium iodide staining based flow cytometry (reference value: 19.5%)", "type": "functional"}, "HepG2 [33]": {"system": "HepG2", "assay": "Induction of apoptosis in human HepG2 cells assessed as late apoptotic cells level at 10 uM after 24 hrs by annexin V/propidium iodide double staining based flow cytometry", "type": "functional"}, "[34]": {"assay": "Binding affinity to fluorescently-labeled c-KIT2 G-quadruplex DNA (unknown origin) by thiazole-ornage dye based fluorescence intercalator displacement assay"}, "HepG2 [35]": {"system": "HepG2", "assay": "Induction of apoptosis in human HepG2 cells assessed as necrotic cells level at 10 uM after 24 hrs by annexin V/propidium iodide double staining based flow cytometry", "type": "functional"}, "[36]": {"assay": "Binding affinity to fluorescently-labeled c-KIT1 G-quadruplex DNA (unknown origin) assessed as change in melting temperature at 2 uM in presence of 20 uM duplex DNA by FRET assay"}}, "note": "Active and inactive are the calls of the source. The calls are words filed in the database; no cut-off is given here."}
{"molecule": "O=C(NCc1cn(-c2ccc(NC(=O)[C@@H]3CCCN3)cc2)nn1)c1cccc(C(=O)NCc2cn(-c3ccc(NC(=O)[C@@H]4CCCN4)cc3)nn2)n1", "values": [{"measurement": "DC50", "setting": "[1]", "value": 11.3, "unit": "µM"}, {"measurement": "Kd", "setting": "[1]", "value": 3.8, "unit": "µM"}, {"measurement": "Activity", "setting": "HepG2 [2]", "value": 14, "unit": "%"}, {"measurement": "Activity", "setting": "HepG2 [3]", "value": 38.6, "unit": "%"}, {"measurement": "Activity", "setting": "HepG2 [4]", "value": 6.1, "unit": "%"}, {"measurement": "Activity", "setting": "HepG2 [5]", "value": 26.7, "unit": "%"}, {"measurement": "Activity", "setting": "[6]", "value": "Dose-dependent effect"}, {"measurement": "Activity", "setting": "HepG2 [7]", "value": 56.2, "unit": "%"}, {"measurement": "IC50", "setting": "HepG2 [8]", "value": 7.42, "unit": "µM"}, {"measurement": "Activity", "setting": "HepG2 [9]", "value": 65.8, "unit": "%"}, {"measurement": "DC50", "setting": "[10]", "value": 7.3, "unit": "µM"}, {"measurement": "Kd", "setting": "[10]", "value": 11.6, "unit": "µM"}, {"measurement": "deltaTm", "setting": "[11]", "value": 30.6, "unit": "K"}, {"measurement": "Activity", "setting": "HepG2 [12]", "value": 2.6, "unit": "%"}, {"measurement": "Activity", "setting": "[13]", "value": "inactive"}, {"measurement": "Activity", "setting": "[14]", "value": "inactive"}, {"measurement": "Activity", "setting": "HepG2 [15]", "value": 29.3, "unit": "%"}, {"measurement": "Activity", "setting": "HepG2 [16]", "value": 7.4, "unit": "%"}, {"measurement": "Activity", "setting": "HepG2 [17]", "value": 0.6, "unit": "%"}, {"measurement": "Selectivity ratio", "setting": "[18]", "value": 30}, {"measurement": "Activity", "setting": "HepG2 [19]", "value": 55.5, "unit": "%"}, {"measurement": "Selectivity ratio", "setting": "[20]", "value": 5}, {"measurement": "Activity", "setting": "HepG2 [21]", "value": 24.4, "unit": "%"}, {"measurement": "Activity", "setting": "[22]", "value": "inactive"}, {"measurement": "Activity", "setting": "HepG2 [23]", "value": 3.9, "unit": "%"}, {"measurement": "Activity", "setting": "HepG2 [24]", "value": 7.3, "unit": "%"}, {"measurement": "Activity", "setting": "HepG2 [25]", "value": 18.4, "unit": "%"}, {"measurement": "Activity", "setting": "HepG2 [26]", "value": 0.2, "unit": "%"}, {"measurement": "Selectivity ratio", "setting": "[27]", "value": 15}, {"measurement": "DC50", "setting": "[28]", "value": "> 25", "unit": "µM"}, {"measurement": "Activity", "setting": "HepG2 [29]", "value": 3.3, "unit": "%"}, {"measurement": "Activity", "setting": "HepG2 [30]", "value": 8.2, "unit": "%"}, {"measurement": "DC50", "setting": "[31]", "value": 0.47, "unit": "µM"}, {"measurement": "Kd", "setting": "[31]", "value": 0.74, "unit": "µM"}, {"measurement": "Activity", "setting": "HepG2 [32]", "value": 13.8, "unit": "%"}, {"measurement": "Activity", "setting": "HepG2 [33]", "value": 6.7, "unit": "%"}, {"measurement": "DC50", "setting": "[34]", "value": 9.5, "unit": "µM"}, {"measurement": "Kd", "setting": "[34]", "value": 22.7, "unit": "µM"}, {"measurement": "Activity", "setting": "HepG2 [35]", "value": 85.8, "unit": "%"}, {"measurement": "Activity", "setting": "[36]", "value": "inactive"}]}
